From patent US6734196B2, “Substituted pyridine or piperidine compounds” (Les Laboratoires Servier, priority 1999, dated 2004) come the findings set out here.

Regarding `C[n+]1c(C=C(c2ccccc2)N2CCOCC2)cccc1N1CCOCC1.[I-]`, the melting point (commonly the temperature, or range, at which the solid turns liquid) is 214 to 216 °C. The result for `COc1ccc(C(=O)Cc2cccc(CC(=O)c3ccccc3)[n+]2C)cc1.O=S(=O)([O-])C(F)(F)F` reads 193 to 195 °C. In the case of `C[n+]1ccccc1CC(=O)c1ccc(Cl)cc1.F[P-](F)(F)(F)(F)F`, the melting point was in the range of 152 to 154 °C.

In turn, `C[n+]1c(CC(=O)c2ccccc2)cccc1CC(=O)c1ccc(F)cc1.[I-]` gave a melting point of 220 to 222 °C. The result for `C[n+]1c(CC(=O)c2ccc(Cl)cc2)cccc1CC(=O)c1ccc(Br)cc1.[I-]` reads 226 to 227 °C. In the case of `C[n+]1c(CC(=O)c2ccccc2)cccc1CC(=O)c1ccc(Br)cc1.[I-]` it was 218 to 220 °C. The result for `COc1ccc(C(=O)Cc2cccc(CC(=O)c3ccc(F)cc3)[n+]2C)cc1.O=S(=O)([O-])C(F)(F)F` reads 208 to 210 °C; that for `C[n+]1ccccc1C=C(c1ccccc1)N1CCCC1.[I-]`, 200 to 202 °C. In turn, `C[n+]1ccccc1CC(=O)c1cccc(Br)c1.[I-]` had a melting point of 217 to 218 °C.

For `CN1C(CC(=O)c2ccccc2)CCCC1CC(=O)c1ccc(F)cc1.I` (centres unmarked), the melting point lay in the range of 152 to 154 °C. The result for `Cc1ccc(C(=O)CC2CCCC(CC(=O)c3ccccc3)N2C)cc1.I` (centres unmarked) reads 192 to 193 °C; that for `C[n+]1ccccc1CC(=O)c1ccccc1Br.[I-]`, 204 to 205 °C; that for `COc1ccc(C(=O)Cc2cccc[n+]2C)cc1.[I-]`, 214 to 216 °C. The result for `COc1ccc(C(=O)Cc2cccc[n+]2C)cc1.F[P-](F)(F)(F)(F)F` reads 168 to 170 °C.

For the compound `C[n+]1ccccc1CC(=O)c1ccc(Cl)cc1.[I-]`, the melting point was in the range of 212 to 214 °C.

For the compound `C[n+]1ccccc1C1CCCCC1=O.[I-]` (centres unmarked), the melting point is 151 to 153 °C. The result for `COc1ccc(C(=O)CC2CCCCN2C)cc1.I` (centres unmarked) reads 201 to 203 °C. In the case of `C[n+]1c(CC(=O)c2ccc(Cl)cc2)cccc1CC(=O)c1ccc(Br)cc1.O=S(=O)([O-])C(F)(F)F` it was 226 to 228 °C; in that of `CN1CCCCC1C1CCCCC1=O.I` (centres unmarked), 160 to 162 °C; in that of `CN1CCCCC1CC(=O)c1ccccc1Br.I` (centres unmarked), 163.5 to 164 °C. In the case of `CN1CCCCC1CC(=O)c1ccc(Br)cc1.I` (centres unmarked) it was 182 to 184 °C; in that of `CN1CCCCC1CC(=O)c1cccc(Br)c1.I` (centres unmarked), 134 to 136 °C.

`C[n+]1c(CC(=O)c2ccccc2)cccc1CC(=O)c1ccccc1.[I-]` came in with a melting point of 197 to 199 °C. As for `Cc1ccc(C(=O)Cc2cccc(CC(=O)c3ccccc3)[n+]2C)cc1.[I-]`, the melting point fell in the range of 205 to 206 °C. In the case of `C[n+]1c(CC(=O)c2ccccc2)cccc1CC(=O)c1ccc(Cl)cc1.O=S(=O)([O-])C(F)(F)F` it was 199 to 201 °C; in that of `CN1C(CC(=O)c2ccc(Cl)cc2)CCCC1CC(=O)c1ccc(Br)cc1.I` (centres unmarked), 200 to 202 °C. In turn, `C[n+]1ccccc1CC(=O)c1ccc(Br)cc1.F[P-](F)(F)(F)(F)F` yielded a melting point of 185 to 187 °C. The result for `CN1C(CC(=O)c2ccccc2)CCCC1CC(=O)c1ccc(Cl)cc1.I` (centres unmarked) reads 152 to 154 °C.

On to `C[n+]1ccccc1CC(=O)c1ccc(Br)cc1.[I-]`, for which the melting point was in the range of 222 to 224 °C. In the case of `COc1ccc(C(=O)Cc2cccc(CC(=O)c3ccccc3)[n+]2C)cc1.[I-]` it was 203 to 205 °C. The result for `C[n+]1c(CC(=O)c2ccccc2)cccc1CC(=O)c1ccc(Cl)cc1.[I-]` reads 213 to 215 °C. In the case of `COc1ccc(C(=O)Cc2cccc(CC(=O)c3ccc(F)cc3)[n+]2C)cc1.[I-]` it was 219 to 220 °C.
